Measurements reported in patent US9113629B2, “4-amino-6-(4-substituted-phenyl)-picolinates and 6-amino-2-(4-substituted-phenyl)-pyrimidine-4-carboxylates and their use as herbicides” (DOW AGROSCIENCES LLC, priority 2013, dated 2015).

Tested on: Key Broadleaf Weed and Crop Species
Assay: Post-emergent Test II herbicidal activity (Table 5)
Assay type: in vivo
Conditions: post-emergence, 336 h; ABUTH: velvetleaf (Abutilon theophrasti); 70 g ai/ha; post-emergent; 14 days after application; read-out: Visual Growth Reduction (%) 14 Days After Application ABUTH
Procedure, shortened: (§1)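 Compounds, dissolved in 97:3 acetone/DMSO and diluted into an aqueous carrier containing crop oil concentrate and Triton X-155, are applied over the top of young plants at 187 L/ha. Injury is scored visually at 14 d, 0% meaning no effect and 100% complete kill.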

Row | SMILES | pest or weed control at 70 g/ha
1 | Nc1cc(-c2ccc(Br)cc2F)nc(C(=O)O)c1Cl [Compound 74] | 95 to 100%

Same assay, conditions: post-emergence, 336 h; ABUTH: velvetleaf (Abutilon theophrasti); 140 g ai/ha; post-emergent; 14 days after application; read-out: Visual Growth Reduction (%) 14 Days After Application ABUTH

Row | SMILES | pest or weed control at 140 g/ha
2 | Nc1cc(-c2ccc(Br)cc2F)nc(C(=O)O)c1Cl [Compound 74] | 95 to 100%

Same assay, conditions: post-emergence, 336 h; AMARE: redroot pigweed (Amaranthus retroflexus); 70 g ai/ha; post-emergent; 14 days after application; read-out: Visual Growth Reduction (%) 14 Days After Application AMARE

Row | SMILES | pest or weed control at 70 g/ha
3 | Nc1cc(-c2ccc(Br)cc2F)nc(C(=O)O)c1Cl [Compound 74] | 95 to 100%

Same assay, conditions: post-emergence, 336 h; AMARE: redroot pigweed (Amaranthus retroflexus); 140 g ai/ha; post-emergent; 14 days after application; read-out: Visual Growth Reduction (%) 14 Days After Application AMARE

Row | SMILES | pest or weed control at 140 g/ha
4 | Nc1cc(-c2ccc(Br)cc2F)nc(C(=O)O)c1Cl [Compound 74] | 95 to 100%

Same assay, conditions: post-emergence, 336 h; BRSNN: oilseed-rape, canola (Brassica napus); 70 g ai/ha; post-emergent; 14 days after application; read-out: Visual Growth Reduction (%) 14 Days After Application BRSNN

Row | SMILES | pest or weed control at 70 g/ha
5 | Nc1cc(-c2ccc(Br)cc2F)nc(C(=O)O)c1Cl [Compound 74] | 85 to 94%

Same assay, conditions: post-emergence, 336 h; BRSNN: oilseed-rape, canola (Brassica napus); 140 g ai/ha; post-emergent; 14 days after application; read-out: Visual Growth Reduction (%) 14 Days After Application BRSNN

Row | SMILES | pest or weed control at 140 g/ha
6 | Nc1cc(-c2ccc(Br)cc2F)nc(C(=O)O)c1Cl [Compound 74] | 85 to 94%

Same assay, conditions: post-emergence, 336 h; CHEAL: lambsquarters (Chenopodium album); 70 g ai/ha; post-emergent; 14 days after application; read-out: Visual Growth Reduction (%) 14 Days After Application CHEAL

Row | SMILES | pest or weed control at 70 g/ha
7 | Nc1cc(-c2ccc(Br)cc2F)nc(C(=O)O)c1Cl [Compound 74] | 95 to 100%

Same assay, conditions: post-emergence, 336 h; CHEAL: lambsquarters (Chenopodium album); 140 g ai/ha; post-emergent; 14 days after application; read-out: Visual Growth Reduction (%) 14 Days After Application CHEAL

Row | SMILES | pest or weed control at 140 g/ha
8 | Nc1cc(-c2ccc(Br)cc2F)nc(C(=O)O)c1Cl [Compound 74] | 95 to 100%

Same assay, conditions: post-emergence, 336 h; EPHHL: wild poinsettia (Euphorbia heterophylla); 70 g ai/ha; post-emergent; 14 days after application; read-out: Visual Growth Reduction (%) 14 Days After Application EPHHL

Row | SMILES | pest or weed control at 70 g/ha
9 | Nc1cc(-c2ccc(Br)cc2F)nc(C(=O)O)c1Cl [Compound 74] | 95 to 100%

Same assay, conditions: post-emergence, 336 h; EPHHL: wild poinsettia (Euphorbia heterophylla); 140 g ai/ha; post-emergent; 14 days after application; read-out: Visual Growth Reduction (%) 14 Days After Application EPHHL

Row | SMILES | pest or weed control at 140 g/ha
10 | Nc1cc(-c2ccc(Br)cc2F)nc(C(=O)O)c1Cl [Compound 74] | 95 to 100%

Same assay, conditions: post-emergence, 336 h; HELAN: sunflower (Helianthus annuus); 70 g ai/ha; post-emergent; 14 days after application; read-out: Visual Growth Reduction (%) 14 Days After Application HELAN

Row | SMILES | pest or weed control at 70 g/ha
11 | Nc1cc(-c2ccc(Br)cc2F)nc(C(=O)O)c1Cl [Compound 74] | 95 to 100%

Same assay, conditions: post-emergence, 336 h; HELAN: sunflower (Helianthus annuus); 140 g ai/ha; post-emergent; 14 days after application; read-out: Visual Growth Reduction (%) 14 Days After Application HELAN

Row | SMILES | pest or weed control at 140 g/ha
12 | Nc1cc(-c2ccc(Br)cc2F)nc(C(=O)O)c1Cl [Compound 74] | 95 to 100%

Same assay, conditions: post-emergence, 336 h; VIOTR: wild pansy (Viola tricolor); 70 g ai/ha; post-emergent; 14 days after application; read-out: Visual Growth Reduction (%) 14 Days After Application VIOTR

Row | SMILES | pest or weed control at 70 g/ha
13 | Nc1cc(-c2ccc(Br)cc2F)nc(C(=O)O)c1Cl [Compound 74] | 95 to 100%

Same assay, conditions: post-emergence, 336 h; VIOTR: wild pansy (Viola tricolor); 140 g ai/ha; post-emergent; 14 days after application; read-out: Visual Growth Reduction (%) 14 Days After Application VIOTR

Row | SMILES | pest or weed control at 140 g/ha
14 | Nc1cc(-c2ccc(Br)cc2F)nc(C(=O)O)c1Cl [Compound 74] | 95 to 100%

Tested on: Key Grass and Sedge Weeds as well as Grass Crops
Assay: Post-emergent Test II herbicidal activity (Table 6)
Assay type: in vivo
Conditions: Triticum aestivum, post-emergence, 336 h, TRZSS (wheat), application rate 70 g ai/ha, read-out: Visual Growth Reduction (%) 14 Days After Application, TRZSS
Procedure, shortened: as §1

Row | SMILES | pest or weed control at 70 g/ha
15 | Nc1cc(-c2ccc(Br)cc2F)nc(C(=O)O)c1Cl [Compound 74] | 45 to 59%

Same assay, conditions: Triticum aestivum, post-emergence, 336 h, TRZSS (wheat), application rate 140 g ai/ha, read-out: Visual Growth Reduction (%) 14 Days After Application, TRZSS

Row | SMILES | pest or weed control at 140 g/ha
16 | Nc1cc(-c2ccc(Br)cc2F)nc(C(=O)O)c1Cl [Compound 74] | 60 to 74%

Same assay, conditions: post-emergence, 336 h, CYPES: yellow nutsedge (Cyperus esculentus), application rate 70 g ai/ha, read-out: Visual Growth Reduction (%) 14 Days After Application, CYPES

Row | SMILES | pest or weed control at 70 g/ha
17 | Nc1cc(-c2ccc(Br)cc2F)nc(C(=O)O)c1Cl [Compound 74] | 95 to 100%

Same assay, conditions: post-emergence, 336 h, CYPES: yellow nutsedge (Cyperus esculentus), application rate 140 g ai/ha, read-out: Visual Growth Reduction (%) 14 Days After Application, CYPES

Row | SMILES | pest or weed control at 140 g/ha
18 | Nc1cc(-c2ccc(Br)cc2F)nc(C(=O)O)c1Cl [Compound 74] | 95 to 100%

Same assay, conditions: post-emergence, 336 h, DIGSA: crabgrass (Digitaria sanguinalis), application rate 70 g ai/ha, read-out: Visual Growth Reduction (%) 14 Days After Application, DIGSA

Row | SMILES | pest or weed control at 70 g/ha
19 | Nc1cc(-c2ccc(Br)cc2F)nc(C(=O)O)c1Cl [Compound 74] | 85 to 94%

Same assay, conditions: post-emergence, 336 h, DIGSA: crabgrass (Digitaria sanguinalis), application rate 140 g ai/ha, read-out: Visual Growth Reduction (%) 14 Days After Application, DIGSA

Row | SMILES | pest or weed control at 140 g/ha
20 | Nc1cc(-c2ccc(Br)cc2F)nc(C(=O)O)c1Cl [Compound 74] | 85 to 94%

Same assay, conditions: post-emergence, 336 h, ECHCG: barnyardgrass (Echinochloa crus-galli), application rate 70 g ai/ha, read-out: Visual Growth Reduction (%) 14 Days After Application, ECHCG

Row | SMILES | pest or weed control at 70 g/ha
21 | Nc1cc(-c2ccc(Br)cc2F)nc(C(=O)O)c1Cl [Compound 74] | 85 to 94%

Same assay, conditions: post-emergence, 336 h, ECHCG: barnyardgrass (Echinochloa crus-galli), application rate 140 g ai/ha, read-out: Visual Growth Reduction (%) 14 Days After Application, ECHCG

Row | SMILES | pest or weed control at 140 g/ha
22 | Nc1cc(-c2ccc(Br)cc2F)nc(C(=O)O)c1Cl [Compound 74] | 85 to 94%

Same assay, conditions: post-emergence, 336 h, ORYSA: rice (Oryza sativa), application rate 70 g ai/ha, read-out: Visual Growth Reduction (%) 14 Days After Application, ORYSA

Row | SMILES | pest or weed control at 70 g/ha
23 | Nc1cc(-c2ccc(Br)cc2F)nc(C(=O)O)c1Cl [Compound 74] | 0 to 29%

Same assay, conditions: post-emergence, 336 h, ORYSA: rice (Oryza sativa), application rate 140 g ai/ha, read-out: Visual Growth Reduction (%) 14 Days After Application, ORYSA

Row | SMILES | pest or weed control at 140 g/ha
24 | Nc1cc(-c2ccc(Br)cc2F)nc(C(=O)O)c1Cl [Compound 74] | 30 to 44%

Same assay, conditions: post-emergence, 336 h, SETFA: giant foxtail (Setaria faberi), application rate 70 g ai/ha, read-out: Visual Growth Reduction (%) 14 Days After Application, SETFA

Row | SMILES | pest or weed control at 70 g/ha
25 | Nc1cc(-c2ccc(Br)cc2F)nc(C(=O)O)c1Cl [Compound 74] | 75 to 84%

Same assay, conditions: post-emergence, 336 h, SETFA: giant foxtail (Setaria faberi), application rate 140 g ai/ha, read-out: Visual Growth Reduction (%) 14 Days After Application, SETFA

Row | SMILES | pest or weed control at 140 g/ha
26 | Nc1cc(-c2ccc(Br)cc2F)nc(C(=O)O)c1Cl [Compound 74] | 85 to 94%

Same assay, conditions: post-emergence, 336 h, SORVU: grain sorghum (Sorghum vulgare), application rate 70 g ai/ha, read-out: Visual Growth Reduction (%) 14 Days After Application, SORVU

Row | SMILES | pest or weed control at 70 g/ha
27 | Nc1cc(-c2ccc(Br)cc2F)nc(C(=O)O)c1Cl [Compound 74] | 85 to 94%

Same assay, conditions: post-emergence, 336 h, SORVU: grain sorghum (Sorghum vulgare), application rate 140 g ai/ha, read-out: Visual Growth Reduction (%) 14 Days After Application, SORVU

Row | SMILES | pest or weed control at 140 g/ha
28 | Nc1cc(-c2ccc(Br)cc2F)nc(C(=O)O)c1Cl [Compound 74] | 85 to 94%

Same assay, conditions: post-emergence, 336 h, ZEAMX: maize, corn (Zea mays), application rate 70 g ai/ha, read-out: Visual Growth Reduction (%) 14 Days After Application, ZEAMX

Row | SMILES | pest or weed control at 70 g/ha
29 | Nc1cc(-c2ccc(Br)cc2F)nc(C(=O)O)c1Cl [Compound 74] | 75 to 84%

Same assay, conditions: post-emergence, 336 h, ZEAMX: maize, corn (Zea mays), application rate 140 g ai/ha, read-out: Visual Growth Reduction (%) 14 Days After Application, ZEAMX

Row | SMILES | pest or weed control at 140 g/ha
30 | Nc1cc(-c2ccc(Br)cc2F)nc(C(=O)O)c1Cl [Compound 74] | 75 to 84%

Tested on: not given
Assay: not given
Conditions: not given

Row | melting point | SMILES
31 | 186 to 187.3 °C | Nc1cc(-c2ccc(Br)cc2F)nc(C(=O)O)c1Cl [Compound 74]
